Laboratory results from PubChem BioAssay (NCI).
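How tested: cells in 96-well plates exposed to compound for 48 hours at five concentrations. GI50 = concentration required for 50% inhibition of growth. Definition used: TGI = concentration required for complete inhibition of growth.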

Columns and labels:
Assay in all cases: DTP human tumour cell line panel, 48 h
UACC-62 melanoma = test system: UACC-62 melanoma
SF-295 CNS = test system: SF-295 CNS
HOP-92 NSCLC = test system: HOP-92 NSCLC
SNB-19 CNS = test system: SNB-19 CNS
K-562 leukemia = test system: K-562 leukemia
CAKI-1 renal = test system: CAKI-1 renal
MDA-MB-231 breast = test system: MDA-MB-231 breast
NCI-H460 lung = test system: NCI-H460 lung
MDA-MB-435 = test system: MDA-MB-435
HT29 colon = test system: HT29 colon

## N#CSc1ccc(S(N)(=O)=O)cc1
UACC-62 melanoma
  TGI: > 100 µM
SF-295 CNS
  TGI: > 100 µM
HOP-92 NSCLC
  TGI: > 100 µM
SNB-19 CNS
  TGI: > 100 µM
K-562 leukemia
  TGI: > 100 µM
CAKI-1 renal
  TGI: > 100 µM
MDA-MB-231 breast
  TGI: > 100 µM
NCI-H460 lung
  TGI: > 100 µM
MDA-MB-435
  TGI: > 100 µM
HT29 colon
  TGI: > 100 µM

## O=S(=O)(Nc1ccccn1)c1ccc(N=Nc2ccc(O)c3ncccc23)cc1
UACC-62 melanoma
  GI50: 0.582 µM
  TGI: 3.03 µM
SF-295 CNS
  GI50: 2.14 µM
  TGI: 4.86 µM
HOP-92 NSCLC
  GI50: 1.21 µM
  TGI: 5.34 µM
SNB-19 CNS
  GI50: 0.771 µM
  TGI: > 53.3 µM
K-562 leukemia
  GI50: 0.734 µM
  TGI: > 37.7 µM
CAKI-1 renal
  GI50: 0.441 µM
  TGI: 4.56 µM
MDA-MB-231 breast
  GI50: 1.11 µM
  TGI: 6.03 µM
NCI-H460 lung
  GI50: 0.891 µM
  TGI: 4.59 µM
MDA-MB-435
  GI50: 0.638 µM
  TGI: 8.41 µM
HT29 colon
  GI50: 4.53 µM
  TGI: 19.3 µM

## Cc1ccc(C2=NN(c3ccc(S(N)(=O)=O)cc3)C(c3cn(-c4ccccc4)nc3-c3ccccc3)C2)cc1 (stereo not given)
UACC-62 melanoma
  GI50: 32.4 µM
  TGI: > 100 µM
SF-295 CNS
  GI50: 73.3 µM
  TGI: > 100 µM
HOP-92 NSCLC
  GI50: 3.33 µM
  TGI: 22.2 µM
SNB-19 CNS
  GI50: > 100 µM
  TGI: > 100 µM
K-562 leukemia
  GI50: 3.82 µM
  TGI: > 100 µM
CAKI-1 renal
  GI50: 6.17 µM
  TGI: > 100 µM
MDA-MB-231 breast
  GI50: 9.41 µM
  TGI: 84.4 µM
NCI-H460 lung
  GI50: 4.22 µM
  TGI: > 100 µM
MDA-MB-435
  GI50: 10 µM
  TGI: > 100 µM
HT29 colon
  GI50: 4.8 µM
  TGI: > 100 µM

## COc1ccc(C(c2cc3c(cc2O)OCO3)N2CCOCC2)cc1OC (stereo not given)
UACC-62 melanoma
  TGI: 19.9 µM
SF-295 CNS
  TGI: 27.2 µM
HOP-92 NSCLC
  TGI: 32.8 µM
SNB-19 CNS
  TGI: 30.4 µM
K-562 leukemia
  TGI: 69.4 µM
CAKI-1 renal
  TGI: 25.4 µM
MDA-MB-231 breast
  TGI: 15.8 µM
NCI-H460 lung
  TGI: 71.9 µM
MDA-MB-435
  TGI: 23.4 µM
HT29 colon
  TGI: 26 µM

## C[C@@H]1OCC2(CCN(c3cnc(Sc4ccnc(N)c4Cl)c(N)n3)CC2)[C@@H]1N
UACC-62 melanoma
  GI50: > 100 µM
  TGI: > 100 µM
SF-295 CNS
  GI50: > 100 µM
  TGI: > 100 µM
HOP-92 NSCLC
  GI50: 0.0469 µM
  TGI: 0.788 µM
SNB-19 CNS
  GI50: > 100 µM
  TGI: > 100 µM
K-562 leukemia
  GI50: 0.397 µM
  TGI: > 100 µM
CAKI-1 renal
  GI50: 3.69 µM
  TGI: > 100 µM
MDA-MB-231 breast
  GI50: > 100 µM
  TGI: > 100 µM
NCI-H460 lung
  GI50: > 100 µM
  TGI: > 100 µM
MDA-MB-435
  GI50: > 100 µM
  TGI: > 100 µM
HT29 colon
  GI50: > 100 µM
  TGI: > 100 µM

## COc1cc(/C=C2\C[C@H]3[C@@H]4CC=C5C[C@@H](OC(C)=O)CC[C@]5(C)[C@H]4CC[C@]3(C)[C@H]2OC(C)=O)ccc1OCCN1CCCCC1
UACC-62 melanoma
  GI50: 8.14 µM
  TGI: 15 µM
SF-295 CNS
  GI50: 9.57 µM
  TGI: 24.1 µM
HOP-92 NSCLC
  GI50: 27.6 µM
  TGI: > 50 µM
SNB-19 CNS
  GI50: 46.2 µM
  TGI: > 50 µM
K-562 leukemia
  GI50: 12.8 µM
  TGI: 43.2 µM
CAKI-1 renal
  GI50: 15.6 µM
  TGI: > 50 µM
MDA-MB-231 breast
  GI50: 11 µM
  TGI: 25.4 µM
NCI-H460 lung
  GI50: 15.8 µM
  TGI: > 50 µM
MDA-MB-435
  GI50: 14.4 µM
  TGI: 44.4 µM
HT29 colon
  GI50: 23.2 µM
  TGI: > 50 µM

## O=c1ccnc(SCc2ccc(Cl)cc2)[nH]1
UACC-62 melanoma
  TGI: > 100 µM
SF-295 CNS
  TGI: > 100 µM
HOP-92 NSCLC
  TGI: > 100 µM
SNB-19 CNS
  TGI: > 100 µM
K-562 leukemia
  TGI: > 100 µM
CAKI-1 renal
  TGI: > 100 µM
MDA-MB-231 breast
  TGI: > 100 µM
NCI-H460 lung
  TGI: > 100 µM
MDA-MB-435
  TGI: > 100 µM
HT29 colon
  TGI: > 100 µM

## Cn1c(=O)c2[nH]c(CCCCc3nc4c([nH]3)c(=O)n(C)c(=S)n4C)nc2n(C)c1=S
UACC-62 melanoma
  TGI: > 100 µM
SF-295 CNS
  TGI: > 100 µM
HOP-92 NSCLC
  TGI: > 100 µM
SNB-19 CNS
  TGI: > 100 µM
K-562 leukemia
  TGI: > 100 µM
CAKI-1 renal
  TGI: > 100 µM
MDA-MB-231 breast
  TGI: > 100 µM
NCI-H460 lung
  TGI: > 100 µM
MDA-MB-435
  TGI: > 100 µM
HT29 colon
  TGI: > 100 µM

## Cc1c(-c2nnc(-c3cc(Cl)c(Cl)cc3Cl)o2)nnn1-c1ccnc2c(C(F)(F)F)cccc12
UACC-62 melanoma
  GI50: 26.5 µM
  TGI: > 100 µM
SF-295 CNS
  GI50: 27.6 µM
  TGI: 76.2 µM
HOP-92 NSCLC
  GI50: 14.4 µM
  TGI: 32.2 µM
SNB-19 CNS
  GI50: 23.8 µM
  TGI: 79.9 µM
K-562 leukemia
  GI50: 33.1 µM
  TGI: > 100 µM
CAKI-1 renal
  GI50: 31.4 µM
  TGI: 94.8 µM
MDA-MB-231 breast
  GI50: 20.2 µM
  TGI: 53.2 µM
NCI-H460 lung
  GI50: 21.7 µM
  TGI: 42.9 µM
MDA-MB-435
  GI50: 26.8 µM
  TGI: 75.1 µM
HT29 colon
  GI50: 22.3 µM
  TGI: 42.2 µM

## Oc1c(CN2CCN(c3ccccc3F)CC2)cc(Br)c2cccnc12
UACC-62 melanoma
  GI50: 0.631 µM
  TGI: 4.09 µM
SF-295 CNS
  GI50: 2.92 µM
  TGI: 42.1 µM
HOP-92 NSCLC
  GI50: 0.896 µM
  TGI: 19.8 µM
SNB-19 CNS
  GI50: 1.14 µM
  TGI: > 100 µM
K-562 leukemia
  GI50: 0.366 µM
  TGI: 19.6 µM
CAKI-1 renal
  GI50: 0.376 µM
  TGI: 9.26 µM
MDA-MB-231 breast
  GI50: 0.902 µM
  TGI: 15.2 µM
NCI-H460 lung
  GI50: 0.4 µM
  TGI: 9.26 µM
MDA-MB-435
  GI50: 1.31 µM
  TGI: > 100 µM
HT29 colon
  GI50: 11.3 µM
  TGI: 40.5 µM
